We go through one compound from patent publication US20150051220A1, “COMPOUNDS FOR USE IN THERAPY” (GLUCOX BIOTECH AB, priority 2012, published 2015).

A short description of this assay: Stroke model, transient middle cerebral artery occlusion (tMCAO). It counts as in vivo. The settings on record: mice, 60 min tMCAO, 3.2 mg/kg i.p. at 2 h and 12 h, sacrificed 24 h after tMCAO, vs vehicle. The method, then: FIG. 4 is a bar chart showing the infarct volume (mm3) in a mice model of stroke, where mice were treated with the inventive compound ethyl 2-(2-(4-(furan-2-carbonyl)piperazin-1-yl)acetamido)-5,6-dihydro-4H-cyclopenta[b]thiophene-3-carboxylate (“INVENTION”) or with vehicle (“CONTROL”).
The stroke disease model used in this example was mice that were subjected to transient middle cerebral artery occlusion (tMCAO) to mimic the mechanisms of ischemic stroke. Male mice weighing 20 g, was subjected to a 60 min of tMCAO as previously described (Elevers M et al., Sci. Signal 3: ra1, 2010; Bena_Erro A et al., Sci Signal 2: ra67). Sham-operated mice were used as control.
For the i.p. administrations performed in this study, 3.5 mg of ethyl 2-(2-(4-(furan-2-carbonyl)piperazin-1-yl)acetamido)-5,6-dihydro-4H-cyclopenta[b]thiophene-3-carboxylate was dissolved in 1 ml of DMSO and 5 ml of 20% Cremophor ELP in PBS then followed by additional PBS. The administered dose used in the experiment was 3.2 mg/kg and in the controls the same injection volume of vehicle was used. Administration was made at 2 h and 12 h for each mouse.
To determine infarct size and effect of Nox4 inhibitor, mice were sacrificed 24 h after tCMCAO and lesion volumes of the brain were determined according to a previously described methodology (Kleinschnitz et al, vide supra).

On to `CCOC(=O)c1c(NC(=O)CN2CCN(C(=O)c3ccco3)CC2)sc2c1CCC2` [the inventive compound, ethyl 2-(2-(4-(furan-2-carbonyl)piperazin-1-yl)acetamido)-5,6-dihydro-4H-cyclopenta[b]thiophene-3-carboxylate], for which the “lesion volume of the brain (infarct volume)” value was “significantly lower lesion volume of the brain”.
